Experimental data as given in patent US20060205669A1, “G-type peptides and other agents to ameliorate atherosclerosis and other pathologies” (The Regents of the University of California, priority 2004, published 2006).

Assays:
ApoE null mice [1] = assay: HDL paraoxonase activity in apoE null mice; format: in vivo; conditions: FIG. 16
Experimental: Female apoE null mice 4 months of age (n=4 per group) were administered by intraperitoneal injection either scrambled D-4F (a non-active control peptide) or D-4F at 10 μg/mouse or the peptide Ac-KWIYHLTEGSTDLRTEG-NH2 (SEQ ID NO:643) synthesized from L-amino acids (L-ApoM) at 50 μg/mouse. The mice were bled 2 or 6 hours later and their HDL isolated by FPLC and the paraoxonase activity in the HDL determined and plotted on the X-axis. Other 4-month-old female apoE null mice (n=4 per group) were administered by gastric gavage the peptide Ac-KWIYHLTEGSTDLRTEG-NH2 (SEQ ID NO:643) synthesized from L-amino acids (L-ApoM) at 100 μg/mouse (L-ApoM by gavage). The mice were bled 6 hours later and their HDL isolated by FPLC and the paraoxonase activity in the HDL determined and plotted on the X-axis.

[2] = tested on: Human aortic endothelial cells; assay: Prevention of LDL-induced monocyte chemotactic activity in vitro, co-incubation; format: cell-based; conditions: co-incubation with control human LDL 200 μg protein/ml, overnight; FIG. 1
Experimental: FIG. 1 illustrates a comparison of the effect of D-4F (Circulation 2002; 105:290-292) with the effect of an apoJ peptide made from D amino acids (D-J336, Ac-LLEQLNEQFNWVSRLANLTQGE-NH2, SEQ ID NO:13) on the prevention of LDL-induced monocyte chemotactic activity in vitro in a co-incubation. Human aortic endothelial cells were incubated with medium alone (no addition), with control human LDL (200 μg protein/ml) or control human LDL+control human HDL (350 μg HDL protein/ml). D-J336 or D-4F was added to other wells in a concentration range as indicated plus control human LDL (200 μg protein/ml). Following overnight incubation, the supernatants were assayed for monocyte chemotactic activity.

[3] = tested on: Human aortic endothelial cells; assay: Prevention of LDL-induced monocyte chemotactic activity by pre-treatment (pre-incubation) of artery wall cells; format: cell-based; conditions: 6 hrs pre-incubation, D-J336 4, 2, 1 μg/ml vs D-4F 100-12.5 μg/ml, FIG. 2
Experimental: FIG. 2 illustrates a comparison of the effect of D-4F with the effect of D-J336 on the prevention of LDL induced monocyte chemotactic activity in a pre-incubation. Human aortic endothelial cells were pre-incubated with D-J336 or D-4F at 4, 2, and 1 μg/ml for DJ336 or 100, 50, 25, and 12.5 μg/ml for D-4F for 6 hrs. The cultures were then washed and were incubated with medium alone (no addition), or with control human LDL (200 μg protein/ml), or with control human LDL+control human HDL (350 μg HDL protein/ml) as assay controls. The wells that were pre-treated with peptides received the control human LDL at 200 μg protein/ml. Following overnight incubation, the supernatants were assayed for monocyte chemotactic activity.

LDL receptor null mice = assay: HDL protective capacity in LDL receptor null mice given peptide in drinking water; format: in vivo; conditions: 0.25 or 0.5 mg per ml drinking water, 24 or 48 hrs, mouse HDL at 100 μg cholesterol/ml
Experimental: D-4F designated as F, or the apoJ peptide made from D amino acids (D-J336, designated as J) was added to the drinking water of LDL receptor null mice (4 per group) at 0.25 or 0.5 mg per ml of drinking water. After 24- or 48-hrs blood was collected from the mice and their HDL was isolated and tested for its ability to protect against LDL-induced monocyte chemotactic activity. Assay controls included culture wells that received no lipoproteins (no addition), or control human LDL alone (designated as LDL, 200 μg cholesterol/ml), or control LDL+control human HDL (designated as +HDL, 350 μg HDL cholesterol). For testing the mouse HDL, the control LDL was added together with mouse HDL (+F HDL or +J HDL) to artery wall cell cultures. The mouse HDL was added at 100 μg cholesterol/ml respectively.

ApoE null mice [4] = assay: Protection against LDL-induced monocyte chemotactic activity by HDL from apo E null mice given oral peptides; format: in vivo; conditions: peptide in drinking water (D-4F 5-50, D-J336 20-50 μg per ml), 24 hrs, murine HDL at 100 μg cholesterol/ml
Experimental: FIG. 4 illustrates the effect of oral apoA-1 peptide mimetic and apoJ peptide on HDL protective capacity. ApoE null mice (4 per group) were provided with D-4F (designated as F) at 50, 30, 20, 10, 5 μg per ml of drinking water or apoJ peptide (designated as J) at 50, 30 or 20 μg per ml of drinking water. After 24 hrs blood was collected, plasma fractionated by FPLC and fractions containing LDL (designated as mLDL for murine LDL) and fractions containing HDL (designated as mHDL) were separately pooled and HDL protective capacity against LDL oxidation as determined by LDL-induced monocyte chemotactic activity was determined. For the assay controls the culture wells received no lipoproteins (no additions), mLDL alone (at 200 μg cholesterol/ml), or mLDL+standard normal human HDL (designated as Cont. h HDL, at 350 μg HDL cholesterol/ml).
For testing the murine HDL, mLDL together with murine HDL (+F mHDL or +J mHDL) were added to artery wall cell cultures. […] The murine HDL was used at 100 μg cholesterol/ml.

ApoE null mice [5] = assay: Ability of LDL from apoE null mice given oral peptides to induce monocyte chemotactic activity (LDL susceptibility to oxidation); format: in vivo; conditions: peptide in drinking water, 24 hrs
Experimental: FIG. 5 illustrates the effect of oral apo A-1 peptide mimetic and apoJ peptide on LDL susceptibility to oxidation. ApoE null mice (4 per group) were provided, in their drinking water, with D-4F (designated as F) at 50, 30, 20, 10, 5 μg per ml of drinking water or the apoJ peptide (D-J336 made from D amino acids and designated as J) at 50, 30 or 20 μg per ml of drinking water. After 24 hrs blood was collected from the mice shown in FIG. 4, plasma fractionated by FPLC and fractions containing LDL (designated as mLDL for murine LDL) were pooled and LDL susceptibility to oxidation as determined by induction of monocyte chemotactic activity was determined. For the assay controls the culture wells received no lipoproteins (no additions), mLDL alone (at 200 μg cholesterol/ml), or mLDL+standard normal human HDL (designated as Cont. h HDL, 350 μg HDL cholesterol).
Murine LDL, mLDL, from mice that received the D-4F (F mLDL) or those that received the apoJ peptide (J mLDL) were added to artery wall cell cultures.

ApoE null mice [6] = assay: Protection against PAPC oxidation by HPODE by HDL from apo E null mice given oral peptides; format: in vivo; conditions: peptide in drinking water, 24 hrs, murine HDL at 100 μg cholesterol/ml
Experimental: FIG. 6 illustrates the effect of oral apoA-1 peptide mimetic and apoJ peptide on HDL protective capacity. ApoE null mice (4 per group) were provided with D-4F (designated as F) at 50, 30, 20, 10, 5 μg per ml of drinking water or apoJ peptide (D-J336 made from D amino acids and designated as J) at 50, 30 or 20 μg per ml of drinking water. After 24 hrs blood was collected, plasma fractionated by FPLC and fractions containing HDL (designated as mHDL) were pooled and HDL protective capacity against PAPC oxidation as determined by the induction of monocyte chemotactic activity was determined. For the assay controls the culture wells received no lipoproteins (no additions), the phospholipid PAPC at 20 μg/ml+HPODE, at 1.0 μg/ml, or PAPC+BPODE plus standard normal human HDL (at 350 μg HDL cholesterol/ml and designated as +Cont. h HDL).
For testing the murine HDL, PAPC+HPODE together with murine HDL (+F mHDL or +J mHDL) were added to artery wall cell cultures. […] The murine HDL was used at 100 μg cholesterol/ml.

ApoE null mice [7] = assay: Plasma paraoxonase (PON1) activity in apoE null mice given oral peptides; format: in vivo; conditions: apoE null mice, 50, 10 or 5 μg per ml drinking water, 24 hrs, FIG. 7
Experimental: ApoE null mice (4 per group) were provided with D-4F designated as F at 50, 10, 5 or 0 μg per ml of drinking water or apoJ peptide (D-J336 made from D amino acids and designated as J) at 50, 10 or 5 μg per ml of drinking water. After 24 hrs blood was collected and plasma was assayed for PON1 activity.

cynomologous monkeys = assay: Monkey HDL and LDL after oral peptide tested for monocyte chemotactic activity in human artery wall cell cultures; format: in vivo; conditions: five milligrams by stomach tube, 6 hours
Experimental: Five milligrams of the peptide LAEYHAK (SEQ ID NO: 8) synthesized from all D-amino acids was administered to each of four cynomologous monkeys in 2.0 mL of water by stomach tube and followed with 2.0 mL of water as a wash. Six hours later the monkeys were bled and their plasma fractionated by fast protein liquid chromatography (FPLC) and tested in human artery wall cell cultures.

Ac-KWIYHLTEGSTDLRTEG-NH2 [L-ApoM]
HDL paraoxonase activity (ApoE null mice [1]; gastric gavage 100 μg/mouse, bled 6 hours later): increased paraoxonase activity
HDL paraoxonase activity (ApoE null mice [1]; intraperitoneal injection 50 μg/mouse, bled 2 or 6 hours later): increased paraoxonase activity

Ac-LLEQLNEQFNWVSRLANLTQGE-NH2 [D-J336]
in vitro concentration that prevents LDL-induced monocyte chemotactic activity by human artery wall cells, times less than the concentration required for D-4F [2]: 10 to 25 times
potency in preventing LDL oxidation by artery wall cells in vitro, times more potent than D-4F [3]: 10 to 25 times
potency in preventing LDL oxidation by artery wall cells in vitro, times more potent than D-4F ([3]; listed as ApoJ variant peptide): 10-25 times
HDL protective capacity against LDL-induced monocyte chemotactic activity (LDL receptor null mice; FIG. 3): as active as 350 μg/ml of control human HDL
HDL protective capacity against LDL-induced monocyte chemotactic activity (LDL receptor null mice; FIG. 3, listed as DJ335): essentially as effective as D4F
HDL protective capacity against LDL oxidation (LDL-induced monocyte chemotactic activity) (ApoE null mice [4]; FIG. 4): as active as 350 μg/ml of normal human HDL
HDL protective capacity against LDL oxidation (LDL-induced monocyte chemotactic activity) (ApoE null mice [4]; FIG. 4, listed as D-J peptide): as potent as D-4F
HDL protective capacity against LDL oxidation (LDL-induced monocyte chemotactic activity) (ApoE null mice [4]; FIG. 4, listed as DJ336): as potent as D4F
rendering LDL resistant to oxidation by human artery wall cells (induction of monocyte chemotactic activity) (ApoE null mice [5]; FIG. 5): slightly more potent than D-4F
rendering LDL resistant to oxidation by human artery wall cells (induction of monocyte chemotactic activity) (ApoE null mice [5]; FIG. 5, listed as DJ336): slightly more potent than D4F
causing HDL to inhibit oxidation of PAPC by HPODE (generation of monocyte chemotactic activity) (ApoE null mice [6]; FIG. 6): as potent as D-4F
causing HDL to inhibit oxidation of PAPC by HPODE (generation of monocyte chemotactic activity) (ApoE null mice [6]; FIG. 6, listed as DJ336): as potent as D4F
increasing plasma paraoxonase activity (ApoE null mice [7]): at least as potent as D-4F
increasing plasma paraoxonase activity (ApoE null mice [7]; listed as DJ336): at least as potent as D4F

LAEYHAK (Synthetic peptide. Can be protected or unprotected as shown in specification.)
monocyte chemotactic activity with hLDL plus monkey HDL taken after peptide versus time zero (cynomologous monkeys; monkey HDL 50 μg/mL HDL-cholesterol, FIG. 17 panel B): significantly reduced monocyte chemotactic activity
monocyte chemotactic activity induced by monkey LDL taken after peptide versus time zero (cynomologous monkeys; monkey LDL 100 μg/mL LDL-cholesterol, FIG. 17 panel C): significantly less monocyte chemotactic activity
